From EP2599767A1, “Phenylbutyl-derivatives” (Lunamed AG, priority 2011, dated 2013)
Where two headings read alike, the source gives them in different places.

Experiments:
[1] = Solubility in solvents (qualitative); assay type: physicochemical; conditions: solvents as named in the value
Jurkat cells [2] = test: Apoptosis assay (active Caspase 3/7 by FAM-DEVD-FMK probe, flow cytometry); assay type: cell-based; conditions: Jurkat cell line; for EC50: Homo sapiens, pro-apoptotic effects; for EC50 / pro-apoptotic effect (in words): 48 hours of treatment; for caspase dependence: effects in presence of zVAD-FMK (in words): 100µM zVAD-FMK, Example 4 at 5mM; for pro-apoptotic effect (in words): Example 3: 30mM and 10mM
Experimental: This study was performed using the following cell line on the two types of experiments performed: • Experiment 1: Study of the effects of compounds of Examples 3 and 4 according to the invention on apoptosis and cell proliferation: • o Jurkat: acute T cell leukemia • Experiment 2: Study of the caspase dependency of cell death induced by the compounds of Example 3 and 4 according to the invention. • o Jurkat: acute T cell leukemia Apoptosis was quantified at the single cell level by titrating active Caspase 3/7. This assay is based on the strong affinity of the FAM-DEVD-FMK peptide (carboxyfluorescein-labeled fluoromethyl ketone) for the catalytic site of the protease. When added to a cell culture, the FAM-DEVD-FMK probe enters cells and covalently binds to the large subunit of the active caspase 3/7. The bound labelled peptide remains within the cytosolic compartment, while the unbound peptides are drained off from the cell. The probe emits a green fluorescent signal which allows a direct measure of the amount of active caspase 3/7 present in the cell. All the conditions were performed in triplicate. Detection of cellular events was performed in triplicate in 96 well-plates after 48 hours of treatment by automated flow cytometry. Non-linear regressions and IC50 calculation were performed with GraphPad Prism 4.01 software. Briefly the time course of the experiments was the following: • o day 1 : seeding of cells in 96 well-plates. • o day 2 : treatment with compounds. • o day 4 : analysis at 48h-treatment. […] Effects of the two compounds of Examples 3 and 4 on apoptosis and cell proliferation in the Jurkat cell line: • The cells were labeled for subsequent cell proliferation measurements and plated in 96 well culture plates in standard culture conditions. • 24 hours after plating, the cells were treated with the two compounds of Examples 3 and 4. Experiment 2: […] zVad-FMK is a cell-permeant pan caspase inhibitor that irreversibly binds to the catalytic site of caspase proteases and can inhibit induction of apoptosis.

Jurkat cells [3] = test: Cell proliferation assay (dilution of fluorescent membrane marker, flow cytometry); assay type: cell-based; conditions: for IC50: Homo sapiens, Jurkat, 48 h; for anti-proliferative effect (in words): Jurkat cell line, 48 hours of treatment, without zVAD, Example 3: 30mM and 10mM
Experimental: This study was performed using the following cell line on the two types of experiments performed: • Experiment 1: Study of the effects of compounds of Examples 3 and 4 according to the invention on apoptosis and cell proliferation: • o Jurkat: acute T cell leukemia • Experiment 2: Study of the caspase dependency of cell death induced by the compounds of Example 3 and 4 according to the invention. • o Jurkat: acute T cell leukemia This assay is based on the dilution rate of a fluorescent membrane marker which is a direct function of cell division. This probe is non toxic and allows the multiplexed detection of other parameters on the same cell population. The assay is performed by loading the cells with a fluorescent phospholipid analogue before plating. […] Subsequently, Flow cytometry analyzes the dilution rate of the fluorescent probe at the single cell level which is a direct readout of the number of cell divisions. All the conditions were performed in triplicate. Detection of cellular events was performed in triplicate in 96 well-plates after 48 hours of treatment by automated flow cytometry. Non-linear regressions and IC50 calculation were performed with GraphPad Prism 4.01 software. Briefly the time course of the experiments was the following: • o day 1 : seeding of cells in 96 well-plates. • o day 2 : treatment with compounds. • o day 4 : analysis at 48h-treatment. […] Effects of the two compounds of Examples 3 and 4 on apoptosis and cell proliferation in the Jurkat cell line: • The cells were labeled for subsequent cell proliferation measurements and plated in 96 well culture plates in standard culture conditions. • 24 hours after plating, the cells were treated with the two compounds of Examples 3 and 4. Experiment 2: […]

[4] = +100µM zVAD, read-out: EC50 (+100µM zVAD)
[5] = without zVAD, read-out: EC50 (without zVAD)

EC50 (Jurkat cells [2]; [4]) [mM] | EC50 (Jurkat cells [2]; [5]) [mM] | IC50 (Jurkat cells [3]; read-out: IC50 (+100µM zVAD)) [µM] | IC50 (Jurkat cells [3]; read-out: IC50 (without zVAD)) [µM] | Compound | solubility (in words) [1] | caspase dependence: effects in presence of zVAD-FMK (in words) (Jurkat cells [2]) | pro-apoptotic effect (in words) (Jurkat cells [2]; without zVAD) | anti-proliferative effect (in words) (Jurkat cells [3])
13 | 6.4 | 4300 | 3200 | CC(NC(=O)CCCc1ccccc1)C(=O)O (centres unmarked) [Example 3, 2-(4-Phenyl-butyrylamino)-propionic acid] | soluble in alcohols (ethanol and methanol) as well as in acetic acid | sensitive to 100µM zVAD-fmk | pro-apoptotic | anti-proliferative effects
10 | 3.2 | 2200 | 2600 | O=C(O)CCCc1ccccc1 [Example 4-PB, 4-Phenylbutyric acid, reference compound] |  | well inhibited by zVAD-FMK | able to elicit apoptosis | inhibit proliferation
 |  |  | 9000 | C[C@H](NC(=O)CCCc1ccccc1)C(=O)OCCOC(=O)[C@@H](C)NC(=O)CCCc1ccccc1 [Example 4] | soluble in dichloromethane, ethyl acetate and acetonitrile | no apoptosis was observed | able to induce apoptosis only at the highest concentration tested (5mM) | concentration dependent anti-proliferative effect

Compound | EC50 (Jurkat cells [2]; [4]) [mM] | EC50 (Jurkat cells [2]; [5]) [mM] | IC50 (Jurkat cells [3]; read-out: IC50 (+100µM zVAD)) [µM] | IC50 (Jurkat cells [3]; read-out: IC50 (without zVAD)) [µM] | solubility (in words) [1] | caspase dependence: effects in presence of zVAD-FMK (in words) (Jurkat cells [2]) | pro-apoptotic effect (in words) (Jurkat cells [2]; without zVAD) | anti-proliferative effect (in words) (Jurkat cells [3])
CN[C@@H]1C[C@H]2O[C@@](C)([C@@H]1OC)n1c3ccccc3c3c4c(c5c6ccccc6n2c5c31)C(=O)NC4 [STS, Staurosporine, reference compound] |  | 2.3e-05 | 0.011 | 0.012 |  |  |  | 
